Measured values as given in PubChem BioAssay AID328 (DTP/NCI, 2004).
Where “and” joins values, the source holds several entries; their conditions need not be identical. Equal entries are not always repeated. Inconclusive results and toxic doses are left out.

Test system: BDF1 mice, P388 leukemia ip, median survival T/C
Test: NCI In Vivo Anticancer Drug Screen. Data for tumor model P388 Leukemia (intraperitoneal) in B6D2F1 (BDF1) mice
Details: endpoint: median survival time, higher = longer survival
Method in brief: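 Compound-treated tumour-bearing mice were compared with vehicle-treated controls. Survival was recorded, and the value is the treated-group measurement divided by the control-group measurement (T/C).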

[1] = dose: 100.0 mg/kg/injection, schedule: Q01DX009 (ip), vehicle: saline with Tween-80
[2] = dose: 200.0 mg/kg/injection, schedule: Q01DX009 (ip), vehicle: saline with Tween-80
[3] = dose: 400.0 mg/kg/injection, schedule: Q01DX009 (ip), vehicle: saline with Tween-80
[4] = dose: 100.0 mg/kg/injection, schedule: Q04DX003 (ip), vehicle: Klucel (hydroxypropylcellulose) (HPC)
[5] = dose: 200.0 mg/kg/injection, schedule: Q04DX003 (ip), vehicle: Klucel (hydroxypropylcellulose) (HPC)
[6] = dose: 400.0 mg/kg/injection, schedule: Q04DX003 (ip), vehicle: Klucel (hydroxypropylcellulose) (HPC)
[7] = dose: 200.0 mg/kg/injection, schedule: Q04DX003 (ip), vehicle: saline with Tween-80
[8] = dose: 400.0 mg/kg/injection, schedule: Q04DX003 (ip), vehicle: saline with Tween-80
[9] = dose: 100.0 mg/kg/injection, schedule: Q01DX009 (ip), vehicle: Klucel (hydroxypropylcellulose) (HPC)
[10] = dose: 200.0 mg/kg/injection, schedule: Q01DX009 (ip), vehicle: Klucel (hydroxypropylcellulose) (HPC)

C=CCCCCCCCCC(=O)NCc1cccnc1
T/C [1]: 86 % of control | T/C [2]: 95 % of control | T/C [3]: 100 % of control

CCCCCCCCCCCCS(=O)CC(C)O (stereo not given)
T/C (dose: 100.0 mg/kg/injection, schedule: Q01DX009 (ip), vehicle: other): 123 % of control

O=C(O)CCCCCCCCCCCCO
T/C [4]: 109 % of control | T/C [5]: 90 % of control | T/C [6]: 90 % of control

CC(=O)C1C(=O)OC2(C)C(=O)C3=COC(/C=C\C(C)=C/C(C)C)=CC3=CC12 (stereo not given)
T/C (dose: 75.0 mg/kg/injection, schedule: Q01DX009 (ip), vehicle: saline with Tween-80): 107 % of control | T/C (dose: 150.0 mg/kg/injection, schedule: Q01DX009 (ip), vehicle: saline with Tween-80): 151 % of control

N#CC1CCCCC1C1(C#N)CCCCC1Cc1ccccn1 (stereo not given)
T/C (dose: 100.0 mg/kg/injection, schedule: Q04DX002 (ip), vehicle: saline with Tween-80): 98 % of control | T/C (dose: 200.0 mg/kg/injection, schedule: Q04DX002 (ip), vehicle: saline with Tween-80): 107 % of control | T/C (dose: 400.0 mg/kg/injection, schedule: Q04DX002 (ip), vehicle: saline with Tween-80): 92 % of control

CN(C)C=C1C(=O)N(C)C(=O)N(C)C1=O
T/C (dose: 100.0 mg/kg/injection, schedule: Q04DX002 (ip), vehicle: saline): 101 % of control | T/C (dose: 200.0 mg/kg/injection, schedule: Q04DX002 (ip), vehicle: saline): 108 % of control | T/C (dose: 400.0 mg/kg/injection, schedule: Q04DX002 (ip), vehicle: saline): 112 % of control

CCCCN(C)N=Nc1ccc(CCC(=O)OCC)cc1
T/C (dose: 78.0 mg/kg/injection, schedule: Q04DX003 (ip), vehicle: saline with Tween-80): 100 % of control | T/C (dose: 118.0 mg/kg/injection, schedule: Q04DX003 (ip), vehicle: saline with Tween-80): 118 % of control | T/C (dose: 177.0 mg/kg/injection, schedule: Q04DX003 (ip), vehicle: saline with Tween-80): 104 % of control | T/C [7]: 118 % of control | T/C [8]: 150 % of control and 168 % of control | T/C (dose: 600.0 mg/kg/injection, schedule: Q04DX003 (ip), vehicle: saline with Tween-80): 184 % of control

COc1cc(N=Nc2c[nH]c3ccccc23)c(OC)cc1N=Nc1ccc([N+](=O)[O-])cc1
T/C (dose: 50.0 mg/kg/injection, schedule: Q01DX005 (ip), vehicle: saline with Tween-80): 92 % of control | T/C (dose: 100.0 mg/kg/injection, schedule: Q01DX005 (ip), vehicle: saline with Tween-80): 106 % of control | T/C (dose: 200.0 mg/kg/injection, schedule: Q01DX005 (ip), vehicle: saline with Tween-80): 111 % of control

CCCCC(=O)c1ccc(Cl)cc1
T/C [9]: 105 % of control | T/C [4]: 104 % of control | T/C [10]: 110 % of control | T/C [5]: 100 % of control | T/C (dose: 400.0 mg/kg/injection, schedule: Q01DX009 (ip), vehicle: Klucel (hydroxypropylcellulose) (HPC)): 115 % of control | T/C [6]: 100 % of control

CCOC(=O)C(C(=O)COC)C(=O)OCC
T/C (dose: 12.5 mg/kg/injection, schedule: Q04DX003 (ip), vehicle: water): 100 % of control | T/C (dose: 25.0 mg/kg/injection, schedule: Q04DX003 (ip), vehicle: water): 108 % of control | T/C (dose: 50.0 mg/kg/injection, schedule: Q04DX003 (ip), vehicle: water): 105 % of control | T/C (dose: 100.0 mg/kg/injection, schedule: Q04DX003 (ip), vehicle: water): 115 % of control | T/C (dose: 200.0 mg/kg/injection, schedule: Q04DX003 (ip), vehicle: water): 115 % of control

CC(=O)OC1C=CCC2C(=O)C34CC=CC(OC(C)=O)C3(C(=O)c3ccccc3C4=O)C(=O)C12 (stereo not given)
T/C (dose: 3.12 mg/kg/injection, schedule: Q01DX009 (ip), vehicle: saline): 95 % of control | T/C (dose: 12.5 mg/kg/injection, schedule: Q01DX009 (ip), vehicle: saline): 95 % of control | T/C (dose: 25.0 mg/kg/injection, schedule: Q01DX009 (ip), vehicle: saline): 114 % of control

Nc1c(C(=O)O)cccc1C(=O)O
T/C [1]: 104 % of control | T/C (dose: 100.0 mg/kg/injection, schedule: Q04DX003 (ip), vehicle: saline with Tween-80): 100 % of control | T/C [2]: 109 % of control | T/C [7]: 100 % of control | T/C [3]: 113 % of control | T/C [8]: 95 % of control

COC(=O)/C(C=Nc1ccccc1)=C(/C)O
T/C (dose: 50.0 mg/kg/injection, schedule: Q01DX009 (ip), vehicle: Klucel (hydroxypropylcellulose) (HPC)): 112 % of control | T/C [9]: 103 % of control | T/C [10]: 108 % of control

CC1(C)N=C(N)N=C(N)N1c1ccc(CCCCc2ccc(S(=O)(=O)F)cc2)cc1
T/C (dose: 12.0 mg/kg/injection, schedule: Q01DX009 (ip), vehicle: saline): 150 % of control

CCOC(=O)c1ccc(N(CCOS(C)(=O)=O)CCOS(C)(=O)=O)cc1
T/C (dose: 66.0 mg/kg/injection, schedule: Q01DX008 (ip), vehicle: saline with Tween-80): 200 % of control | T/C (dose: 100.0 mg/kg/injection, schedule: Q01DX008 (ip), vehicle: saline with Tween-80): 222 % of control | T/C (dose: 132.0 mg/kg/injection, schedule: Q04DX003 (ip), vehicle: saline with Tween-80): 177 % of control | T/C (dose: 150.0 mg/kg/injection, schedule: Q01DX008 (ip), vehicle: saline with Tween-80): 272 % of control | T/C [7]: 190 % of control | T/C (dose: 300.0 mg/kg/injection, schedule: Q04DX003 (ip), vehicle: saline with Tween-80): 195 % of control

CC1=CC2=C(C=O)C(=O)[C@](C)(O)[C@@H](O)C2=CO1
T/C (dose: 44.0 mg/kg/injection, schedule: Q04DX003 (ip), vehicle: Klucel (hydroxypropylcellulose) (HPC)): 101 % of control | T/C (dose: 44.0 mg/kg/injection, schedule: Q04DX003 (ip), vehicle: saline with Tween-80): 108 % of control and 114 % of control | T/C (dose: 66.0 mg/kg/injection, schedule: Q04DX003 (ip), vehicle: Klucel (hydroxypropylcellulose) (HPC)): 115 % of control | T/C (dose: 66.0 mg/kg/injection, schedule: Q04DX003 (ip), vehicle: saline with Tween-80): 116 % of control | T/C [4]: 108 % of control | T/C (dose: 150.0 mg/kg/injection, schedule: Q04DX003 (ip), vehicle: saline with Tween-80): 108 % of control | T/C [7]: 95 % of control

COc1cc2cc(c1Cl)NC(=O)CC(OC(=O)C(C)N(C)C(=O)C1(C)CC1C)C1(C)OC1C(C)C1CC(O)(NC(=O)O1)C(OC)C=C/C=C(\C)C2 (stereo not given)
T/C (dose: 0.1 micrograms/kg/injection, schedule: Q01DX009 (ip), vehicle: saline + alcohol): 115 % of control | T/C (dose: 0.2 micrograms/kg/injection, schedule: Q01DX009 (ip), vehicle: saline + alcohol): 165 % of control | T/C (dose: 0.4 micrograms/kg/injection, schedule: Q01DX009 (ip), vehicle: saline + alcohol): 165 % of control | T/C (dose: 0.8 micrograms/kg/injection, schedule: Q01DX009 (ip), vehicle: saline + alcohol): 155 % of control | T/C (dose: 1.6 micrograms/kg/injection, schedule: Q01DX009 (ip), vehicle: saline + alcohol): 167 % of control and 175 % of control | T/C (dose: 3.1 micrograms/kg/injection, schedule: Q01DX009 (ip), vehicle: saline + alcohol): 184 % of control and 190 % of control | T/C (dose: 6.2 micrograms/kg/injection, schedule: Q01DX009 (ip), vehicle: saline + alcohol): 233 % of control and 300 % of control | T/C (dose: 12.5 micrograms/kg/injection, schedule: Q01DX009 (ip), vehicle: saline + alcohol): 184 % of control and 200 % of control | T/C (dose: 25.0 micrograms/kg/injection, schedule: Q01DX009 (ip), vehicle: saline + alcohol): 87 % of control and 90 % of control

CSc1nc([N+](=O)[O-])c2cnccn12
T/C (dose: 5.0 mg/kg/injection, schedule: Q04DX003 (ip), vehicle: saline with Tween-80): 103 % of control | T/C (dose: 6.25 mg/kg/injection, schedule: Q01DX009 (ip), vehicle: saline with Tween-80): 97 % of control | T/C (dose: 10.0 mg/kg/injection, schedule: Q04DX003 (ip), vehicle: saline with Tween-80): 99 % of control | T/C (dose: 12.5 mg/kg/injection, schedule: Q01DX009 (ip), vehicle: saline with Tween-80): 99 % of control | T/C (dose: 12.5 mg/kg/injection, schedule: Q04DX003 (ip), vehicle: saline with Tween-80): 101 % of control | T/C (dose: 20.0 mg/kg/injection, schedule: Q04DX003 (ip), vehicle: saline with Tween-80): 90 % of control | T/C (dose: 25.0 mg/kg/injection, schedule: Q01DX009 (ip), vehicle: saline with Tween-80): 96 % of control | T/C (dose: 25.0 mg/kg/injection, schedule: Q04DX003 (ip), vehicle: saline with Tween-80): 92 % of control | T/C (dose: 40.0 mg/kg/injection, schedule: Q04DX003 (ip), vehicle: saline with Tween-80): 114 % of control | T/C (dose: 50.0 mg/kg/injection, schedule: Q04DX003 (ip), vehicle: saline with Tween-80): 89 % of control
